The experiment concerns the target T1, CK2α (Homo sapiens, UniProt P68400).
T1 construct: gene CSNK2A1; human recombinant CK2α; rhCK2αΔC(1-335)
T1 sequence (P68400 1-335): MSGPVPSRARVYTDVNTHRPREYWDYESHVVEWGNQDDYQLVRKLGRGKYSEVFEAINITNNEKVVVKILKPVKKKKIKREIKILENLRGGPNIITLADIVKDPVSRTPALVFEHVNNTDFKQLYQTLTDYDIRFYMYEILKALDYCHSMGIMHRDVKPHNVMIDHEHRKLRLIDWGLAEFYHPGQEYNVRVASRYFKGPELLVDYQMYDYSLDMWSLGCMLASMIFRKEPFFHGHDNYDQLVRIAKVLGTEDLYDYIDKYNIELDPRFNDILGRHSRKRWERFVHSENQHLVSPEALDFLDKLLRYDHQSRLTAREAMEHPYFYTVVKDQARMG
Put plainly: radiometric kinase assay dose-response, Lineweaver-Burk kinetics, mutant panel. It counts as biochemical.

One may read the IC50 as the concentration at which inhibition is half-maximal. A low value points to inhibition by little substance. For `O=[N+]([O-])c1ccc2c(N=Nc3ccc4ccccc4c3O)c(O)cc(S(=O)(=O)O)c2c1` [compound 4, Eriochrome Black T], the IC50 is about 400 nM.

The values above are taken from PMC3282105, “Antitumoral activity of allosteric inhibitors of protein kinase CK2” (2011).
